One experiment addresses Human Factor D (Homo sapiens (Human), UniProt P00746). Briefly: Human Factor D assay (Z-L-Lys-SBzl / DTNB, absorbance at 405 nm). In kind it is biochemical. The following applies: Table 3; Human Factor D 80 nM, assay of Example 13. As to the method: Human Factor D (purified from human serum, Complement Technology, Inc.) at 80 nM final concentration was incubated with test compound at various concentrations for 5 minutes at room temperature in 50 mM Tris, 1M NaCl, pH 7.5. A synthetic substrate Z-L-Lys-SBzl and DTNB (Ellman's reagent) were added to final concentrations of 100 μM each. […] IC50 values were calculated by nonlinear regression of complement Factor D reaction rates as a function of test compound concentration.
Chain of Human Factor D (P00746 26-253): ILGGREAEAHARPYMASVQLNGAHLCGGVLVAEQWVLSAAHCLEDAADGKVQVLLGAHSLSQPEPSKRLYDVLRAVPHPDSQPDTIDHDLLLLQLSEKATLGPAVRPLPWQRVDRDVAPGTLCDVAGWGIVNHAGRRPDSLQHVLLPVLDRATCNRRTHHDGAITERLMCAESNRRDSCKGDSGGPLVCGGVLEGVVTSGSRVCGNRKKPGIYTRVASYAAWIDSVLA
In the case of `NC(=O)c1cn(CC(=O)N2C[C@H](F)C[C@H]2C(=O)Nc2cccc(-c3ccccc3Cl)c2F)n2ccnc12` [Compound 58, 5-(2-((2S,4R)-2-(2′-chloro-2-fluorobiphenyl-3-ylcarbamoyl)-4-fluoropyrrolidin-1-yl)-2-oxoethyl)-5H-imidazo[1,2-b]pyrazole-7-carboxamide], the IC50 (in general, the concentration at which inhibition is half-maximal) was in the range of 1 to 10 µM. Regarding `NC(=O)c1cn(CC(=O)N2CCC[C@H]2C(=O)Nc2cccc(-c3ccccc3Cl)c2F)n2ccnc12` [Compound 54], the IC50 was above 10 µM. The same measure, in the same setting: to `NC(=O)c1nn(CC(=O)N2C[C@H](F)C[C@H]2C(=O)Nc2cccc(-c3ccc4[nH]cnc4c3)c2F)c2ccccc12` [Compound 6, 1-(2-((2S,4R)-2-(3-(1H-benzo[d]imidazol-5-yl)-2-fluorophenyl-carbamoyl)-4-fluoropyrrolidin-1-yl)-2-oxoethyl)-1H-indazole-3-carboxamide] belongs below 1 µM; to `NC(=O)c1nn(CC(=O)N2C[C@H](F)C[C@H]2C(=O)Nc2cccc(C(=O)Nc3nc4cccc(Cl)c4[nH]3)c2F)c2ccccc12` [Compound 46], below 1 µM; to `CC(=O)c1nn(CC(=O)N2C[C@H](F)C[C@H]2C(=O)Nc2cccc(-c3ccc4[nH]cnc4c3Cl)c2F)c2ccccc12` [Compound 3, (2S,4R)-1-(2-(3-acetyl-1H-indazol-1-yl)acetyl)-N-(3-(4-chloro-1H-benzo[d]imidazol-5-yl)-2-fluorophenyl)-4-fluoropyrrolidine-2-carboxamide], below 1 µM.

Regarding `CC(=O)c1cn(CC(=O)N[C@H](C(=O)Nc2cccc(Br)n2)[C@@H](C)O)c2ccccc12` [Compound 16, (2S,3R)-2-(2-(3-acetyl-1H-indol-1-yl)acetamido)-N-(6-bromopyridin-2-yl)-3-hydroxybutanamide], the IC50 lay in the range of 1 to 10 µM. Compound `NC(=O)c1nn(CC(=O)N2C[C@H](F)C[C@H]2C(=O)Nc2cccc(-c3ccccc3Cl)c2F)c2cn[nH]c12` [Compound 66, 1-(2-((2S,4R)-2-(2′-chloro-2-fluorobiphenyl-3-ylcarbamoyl)-4-fluoropyrrolidin-1-yl)-2-oxoethyl)-1,4-dihydropyrazolo[4,3-c]pyrazole-3-carboxamide] yielded a half-inhibitory concentration (IC50) below 1 µM. `N#Cc1n[nH]c2ccc(-c3cccc(NC(=O)[C@@H]4C[C@@H](F)CN4C(=O)Cn4nc(C(N)=O)c5ccccc54)c3F)cc12` [Compound 13, 1-(2-((2S,4R)-2-(3-(3-cyano-1H-indazol-5-yl)-2-fluorophenyl-carbamoyl)-4-fluoropyrrolidin-1-yl)-2-oxoethyl)-1H-indazole-3-carboxamide] gave a 50% inhibitory concentration (IC50) below 1 µM. Same read-out and setting: to `Cn1cnc2c(Cl)c(-c3cccc(NC(=O)[C@@H]4C[C@@H](F)CN4C(=O)Cn4nc(C(N)=O)c5ccccc54)c3F)ccc21` [Compound 20, 1-(2-((2S,4R)-2-(3-(4-chloro-1-methyl-1H-benzo[d]imidazol-5-yl)-2-fluorophenyl-carbamoyl)-4-fluoropyrrolidin-1-yl)-2-oxoethyl)-1H-indazole-3-carboxamide] belongs below 1 µM.

Staying with this experiment, now noted: Table 4; Human Factor D 80 nM, assay of Example 13.
The compound `CC(=O)c1nn(CC(=O)N2C[C@H](F)C[C@H]2C(=O)Nc2cccc(-c3ccc4sc(O)nc4c3)c2F)c2ccccc12` [Compound 103, (2S,4R)-1-(2-(3-acetyl-1H-indazol-1-yl)acetyl)-4-fluoro-N-(2-fluoro-3-(2-hydroxybenzo[d]thiazol-5-yl)phenyl)pyrrolidine-2-carboxamide] showed a half-maximal inhibitory concentration (IC50) below 1 µM. Take `CC(=O)c1nn(CC(=O)N2C[C@H](F)C[C@H]2C(=O)Nc2cccc(-c3ccc4c(c3)NC(=O)NC4)c2F)c2ccccc12` [Compound 96, (2S,4R)-1-(2-(3-acetyl-1H-indazol-1-yl)acetyl)-4-fluoro-N-(2-fluoro-3-(2-oxo-1,2,3,4-tetrahydroquinazolin-7-yl)phenyl)pyrrolidine-2-carboxamide]: the half-maximal inhibitory concentration (IC50) is below 1 µM.
